Values joined by “and” are separate entries in the source; they are usually repeats but may differ in a detail not shown here. Equal values may be shown once. Read-outs that look alike come from different tables or passages of the source.
Key:
[1] = Loss of PPTN due to adherence to surfaces of vessels; format: physicochemical; conditions: 200 ng/ml PPTN, no solubilizing agent; Control 48 h, glass scintillation vial
[2] = Plasma concentrations and TK parameters, 72-hour continuous intravenous infusion; format: in vivo, Sprague-Dawley rats; conditions: for Accumulation ratio (C72h/C24h) / Css / Female/Male C72h / Accumulation ratio / half-life: 72 hours of intravenous infusion; for half-life / concentration at 24 h / concentration at 48 h / concentration at 72 h / concentration at 78 h / concentration at 84 h / concentration at 96 h: Sprague-Dawley, rat, plasma; for Plasma concentration, individual animal / concentration at 24 h / concentration at 48 h / concentration at 72 h / concentration at 78 h / concentration at 84 h / concentration at 96 h: female Sprague-Dawley rats; for concentration at 24 h / concentration at 48 h / concentration at 72 h / concentration at 78 h / concentration at 84 h / concentration at 96 h: female, iv
Protocol: The safety and pharmacokinetics of PPTN (KB-1801) in rats receiving continuous intravenous injections of SBECD-containing solutions were analyzed. Three cohorts of six male and six female rats each were given continuous intravenous infusion of PPTN (KB-1801) at 10 mg/kg/day, 30 mg/kg/day or 100 mg/kg/day in a dosing solution containing PPTN at 0.25 mg/mL, 0.75 mg/mL or 2.5 mg/mL and SBECD at about 3.8%. Dosing volume was 40 mIkg/day. [table]

[3] = Female, Group 16, 100 mg/kg/day

SMILES: O=C(O)c1cc(-c2ccc(C3CCNCC3)cc2)c2ccc(-c3ccc(C(F)(F)F)cc3)cc2c1 [KB-1801, 4-[4-(piperidin-4-yl)phenyl]-7-[4-(trifluoromethyl)phenyl]-2-naphthoic acid]
- % recovery vs. standard [1]: 26%
- Accumulation ratio (C72h/C24h) ([2]; Female, Group14, 10 mg/kg/day): 0.91
- Css ([2]; Female, Group14, 10 mg/kg/day): 606.0 ± 52.0 ng/mL
- Accumulation ratio (C72h/C24h) ([2]; Female, Group 15, 30 mg/kg/day): 0.84
- Css ([2]; Female, Group 15, 30 mg/kg/day): 2037.0 ± 433.7 ng/mL
- Accumulation ratio (C72h/C24h) [2, 3]: 0.88
- Css [2, 3]: 6595.6 ± 696.2 ng/mL
- Female/Male C72h ([2]; Group14, 10 mg/kg/day): 1.05
- Female/Male C72h ([2]; Group 15, 30 mg/kg/day): 1.18
- Female/Male C72h ([2]; Group 16, 100 mg/kg/day): 0.70
- Accumulation ratio ([2]; Male, Group14, 10 mg/kg/day): 0.74
- Css ([2]; Male, Group14, 10 mg/kg/day): 636.4 ± 96.8 ng/mL
- Accumulation ratio ([2]; Male, Group 15, 30 mg/kg/day): 0.86
- Css ([2]; Male, Group 15, 30 mg/kg/day): 1974.4 ± 240.2 ng/mL
- Accumulation ratio ([2]; Male, Group 16, 100 mg/kg/day): 1.03
- Css ([2]; Male, Group 16, 100 mg/kg/day): 7774.6 ± 1241.3 ng/mL
- half-life ([2]; Female, Group14, 10 mg/kg/day): 6.67 ± 1.21 h
- half-life ([2]; Female, Group 15, 30 mg/kg/day): 7.06 ± 0.93 h
- half-life [2, 3]: 6.64 ± 0.36 h
- half-life ([2]; Male, Group14, 10 mg/kg/day): 7.91 ± 1.06 h
- half-life ([2]; Male, Group 15, 30 mg/kg/day): 8.29 ± 0.93 h
- half-life ([2]; Male, Group 16, 100 mg/kg/day): 8.83 ± 3.33 h
- Plasma concentration, individual animal ([2]; 72-hour intravenous infusion at 10 mg/kg/day, time 24 h, 10 mg/kg/day): 784.2 ng/mL and 685.7 ng/mL
- Plasma concentration, individual animal ([2]; 72-hour intravenous infusion at 10 mg/kg/day, time 48 h, 10 mg/kg/day): 650.5 ng/mL and 588.8 ng/mL
- Plasma concentration, individual animal ([2]; 72-hour intravenous infusion at 10 mg/kg/day, time 72 h, 10 mg/kg/day): 756.4 ng/mL and 602.0 ng/mL
- Plasma concentration, individual animal ([2]; 72-hour intravenous infusion at 10 mg/kg/day, time 78 h, 10 mg/kg/day): 131.4 ng/mL and 160.1 ng/mL
- Plasma concentration, individual animal ([2]; 72-hour intravenous infusion at 10 mg/kg/day, time 84 h, 10 mg/kg/day): 103.5 ng/mL and 64.3 ng/mL
- Plasma concentration, individual animal ([2]; 72-hour intravenous infusion at 10 mg/kg/day, time 96 h, 10 mg/kg/day): 22.9 ng/mL and 15.3 ng/mL
- Plasma concentration, individual animal ([2]; 72-hour intravenous infusion at 30 mg/kg/day, time 24 h, 30 mg/kg/day): 2027.1 ng/mL and 2581.5 ng/mL
- Plasma concentration, individual animal ([2]; 72-hour intravenous infusion at 30 mg/kg/day, time 48 h, 30 mg/kg/day): 1661.0 ng/mL and 1763.6 ng/mL
- Plasma concentration, individual animal ([2]; 72-hour intravenous infusion at 30 mg/kg/day, time 72 h, 30 mg/kg/day): 1397.7 ng/mL and 2300.3 ng/mL
- Plasma concentration, individual animal ([2]; 72-hour intravenous infusion at 30 mg/kg/day, time 78 h, 30 mg/kg/day): 449.3 ng/mL and 585.0 ng/mL
- Plasma concentration, individual animal ([2]; 72-hour intravenous infusion at 30 mg/kg/day, time 84 h, 30 mg/kg/day): 453.1 ng/mL and 160.2 ng/mL and 306.2 ng/mL
- Plasma concentration, individual animal ([2]; 72-hour intravenous infusion at 30 mg/kg/day, time 96 h, 30 mg/kg/day): 75.6 ng/mL and 115.3 ng/mL
- Plasma concentration, individual animal ([2]; 72-hour intravenous infusion at 100 mg/kg/day, time 24 h, 100 mg/kg/day): 6709.0 ng/mL and 8238.2 ng/mL
- Plasma concentration, individual animal ([2]; 72-hour intravenous infusion at 100 mg/kg/day, time 48 h, 100 mg/kg/day): 5872.0 ng/mL and 8226.5 ng/mL
- Plasma concentration, individual animal ([2]; 72-hour intravenous infusion at 100 mg/kg/day, time 72 h, 100 mg/kg/day): 6680.1 ng/mL and 6734.5 ng/mL
- Plasma concentration, individual animal ([2]; 72-hour intravenous infusion at 100 mg/kg/day, time 78 h, 100 mg/kg/day): 1454.4 ng/mL and 2119.8 ng/mL
- Plasma concentration, individual animal ([2]; 72-hour intravenous infusion at 100 mg/kg/day, time 84 h, 100 mg/kg/day): 1075.5 ng/mL and 1046.1 ng/mL
- Plasma concentration, individual animal ([2]; 72-hour intravenous infusion at 100 mg/kg/day, time 96 h, 100 mg/kg/day): 211.8 ng/mL and 342.6 ng/mL
- concentration at 24 h ([2]; 10 mg/kg/day, 72-hour intravenous infusion at 10 mg/kg/day, time 24 h, read-out: Plasma concentration, Mean): 688 ng/mL
- concentration at 24 h ([2]; 10 mg/kg/day, 72-hour intravenous infusion at 10 mg/kg/day, time 24 h, read-out: Plasma concentration, individual animal): 595 ng/mL
- concentration at 48 h ([2]; 10 mg/kg/day, 72-hour intravenous infusion at 10 mg/kg/day, time 48 h, read-out: Plasma concentration, Mean): 654 ng/mL
- concentration at 48 h ([2]; 10 mg/kg/day, 72-hour intravenous infusion at 10 mg/kg/day, time 48 h, read-out: Plasma concentration, individual animal): 722 ng/mL
- concentration at 72 h ([2]; 10 mg/kg/day, 72-hour intravenous infusion at 10 mg/kg/day, time 72 h, read-out: Plasma concentration, Mean): 624 ng/mL
- concentration at 72 h ([2]; 10 mg/kg/day, 72-hour intravenous infusion at 10 mg/kg/day, time 72 h, read-out: Plasma concentration, individual animal): 514 ng/mL
- concentration at 78 h ([2]; 10 mg/kg/day, 72-hour intravenous infusion at 10 mg/kg/day, time 78 h, read-out: Plasma concentration, Mean): 147 ng/mL
- concentration at 78 h ([2]; 10 mg/kg/day, 72-hour intravenous infusion at 10 mg/kg/day, time 78 h, read-out: Plasma concentration, individual animal): 150 ng/mL
- concentration at 84 h ([2]; 10 mg/kg/day, 72-hour intravenous infusion at 10 mg/kg/day, time 84 h, read-out: Plasma concentration, Mean): 80.9 ng/mL
- concentration at 84 h ([2]; 10 mg/kg/day, 72-hour intravenous infusion at 10 mg/kg/day, time 84 h, read-out: Plasma concentration, individual animal): 74.8 ng/mL
- concentration at 96 h ([2]; 10 mg/kg/day, 72-hour intravenous infusion at 10 mg/kg/day, time 96 h, read-out: Plasma concentration, Mean): 22.5 ng/mL
- concentration at 96 h ([2]; 10 mg/kg/day, 72-hour intravenous infusion at 10 mg/kg/day, time 96 h, read-out: Plasma concentration, individual animal): 29.3 ng/mL
- concentration at 24 h ([2]; 30 mg/kg/day, 72-hour intravenous infusion at 30 mg/kg/day, time 24 h, read-out: Plasma concentration, Mean): 2340 ng/mL
- concentration at 24 h ([2]; 30 mg/kg/day, 72-hour intravenous infusion at 30 mg/kg/day, time 24 h, read-out: Plasma concentration, individual animal): 2420 ng/mL
- concentration at 48 h ([2]; 30 mg/kg/day, 72-hour intravenous infusion at 30 mg/kg/day, time 48 h, read-out: Plasma concentration, Mean): 2210 ng/mL
- concentration at 48 h ([2]; 30 mg/kg/day, 72-hour intravenous infusion at 30 mg/kg/day, time 48 h, read-out: Plasma concentration, individual animal): 3220 ng/mL
- concentration at 72 h ([2]; 30 mg/kg/day, 72-hour intravenous infusion at 30 mg/kg/day, time 72 h, read-out: Plasma concentration, Mean): 1970 ng/mL
- concentration at 72 h ([2]; 30 mg/kg/day, 72-hour intravenous infusion at 30 mg/kg/day, time 72 h, read-out: Plasma concentration, individual animal): 2210 ng/mL
- concentration at 78 h ([2]; 30 mg/kg/day, 72-hour intravenous infusion at 30 mg/kg/day, time 78 h, read-out: Plasma concentration, Mean): 544 ng/mL
- concentration at 78 h ([2]; 30 mg/kg/day, 72-hour intravenous infusion at 30 mg/kg/day, time 78 h, read-out: Plasma concentration, individual animal): 597 ng/mL
- concentration at 84 h ([2]; 30 mg/kg/day, 72-hour intravenous infusion at 30 mg/kg/day, time 84 h, read-out: Plasma concentration, Mean): 306 ng/mL
- concentration at 96 h ([2]; 30 mg/kg/day, 72-hour intravenous infusion at 30 mg/kg/day, time 96 h, read-out: Plasma concentration, Mean): 90.8 ng/mL
- concentration at 96 h ([2]; 30 mg/kg/day, 72-hour intravenous infusion at 30 mg/kg/day, time 96 h, read-out: Plasma concentration, individual animal): 81.6 ng/mL
- concentration at 24 h ([2]; 100 mg/kg/day, 72-hour intravenous infusion at 100 mg/kg/day, time 24 h, read-out: Plasma concentration, Mean): 7740 ng/mL
- concentration at 24 h ([2]; 100 mg/kg/day, 72-hour intravenous infusion at 100 mg/kg/day, time 24 h, read-out: Plasma concentration, individual animal): 8270 ng/mL
- concentration at 48 h ([2]; 100 mg/kg/day, 72-hour intravenous infusion at 100 mg/kg/day, time 48 h, read-out: Plasma concentration, Mean): 6720 ng/mL
- concentration at 48 h ([2]; 100 mg/kg/day, 72-hour intravenous infusion at 100 mg/kg/day, time 48 h, read-out: Plasma concentration, individual animal): 6070 ng/mL
- concentration at 72 h ([2]; 100 mg/kg/day, 72-hour intravenous infusion at 100 mg/kg/day, time 72 h, read-out: Plasma concentration, Mean): 6840 ng/mL
